Experiments:
Format in all cases: cell-based
[1] = tested on: Streptococcus pneumoniae, strain WM-43; assay: Effect of detergent type on Gram reactivity, viability and intrinsic fluorophores; design: key to Viability of Pellet: NG (no growth); 4+(maximal growth); details: for Gram Stain of Pellet: Bacteria (cocci): detergent in 0.3M CAPS, pH 11.7, 1 min at 37° C.; for Viability of Pellet: 1:100 dilution of resuspended pellet plated on Sheep Blood Agar, scale NG to 4+; for effect on Gram reaction/reactivity of the S. pneumoniae isolate (in words): Table 4
Protocol: Lysis buffers were prepared containing detergents of differing structure and lytic activity in a base buffer formulation of 0.3M CAPS, pH 11.7. These lysis buffers were functionally assessed using positive blood culture broth containing a clinical microorganism strain known to be sensitive to detergents and alkaline pH conditions, Streptococcus pneumoniae, strain WM-43. Parameters evaluated were microbial intrinsic fluorescence levels (Excitation-Emission Matrix spectra), separation efficiency, appearance of isolated microbial pellet, and Gram stain characteristics and viability of microorganisms recovered from the pellet beneath the density cushion.
The procedure was performed as follows:
Mix 2 parts of positive broth with 1 part of test lysis buffer, incubate in a 37° C. water bath for 1 minute to lyse blood cells, then layer 0.5 mL of lysate over 0.2 mL of density cushion (14% w/v Iohexyl+1.93% w/v NaCl+10 mM Hepes, pH 7.4) dispensed into a 2-piece optical separation tube which was then hermetically sealed with a screw-cap. After centrifuging the tube in an Eppendorf 5417R microcentrifuge fitted with a A-8-11 swing out rotor for 2 minutes at 10,000 rpm, the tube was placed into a custom-built adapter which coupled the base of the tube directly to a 400 micron fiber optic probe connected to a spectrofluorimeter (Fluorolog® 3 from Horiba Jobin-Yvon, New Jersey), and a complete EEM scan was taken (Ex 260-850 nm; Em 260-1100 nm; every 5 nm). Following the scan, the supernatant was removed and the microbial pellet resuspended in 0.5 mL of Tryptic Soy Broth (TSB). Smears of the suspensions were prepared for Gram staining and twenty microliters of a 1:100 dilution were plated onto Sheep Blood Agar plates for viability estimation on a scale of NG (no growth) to 4+(maximal growth).

[2] = tested on: S. pneumoniae strain, WM43; assay: Further testing of lysis buffers in combination with density cushions; details: irrespective of the makeup of the density cushion
[3] = tested on: S. pneumoniae WM48; assay: Viable counts following lysis buffer treatment
Protocol: (§1) A screening model was developed to enable testing the sensitivity of a larger number of microbial isolates to several detergents. Briefly, suspensions of test fastidious microorganisms were spiked into human blood-containing BacT/ALERT® SA culture media at 10^3-10^5 CFU/mL. Samples were treated with test Lysis Buffers for 1-5 minutes at 37 C, then if required, diluted 1:100 into TSB and plated for viable counts.

[4] = tested on: H. influenzae; assay: Viable counts following lysis buffer treatment
Protocol: as §1

[5] = tested on: C. hominis; assay: Viable counts following lysis buffer treatment
Protocol: as §1

[6] = tested on: H. parainfluenzae; assay: Viable counts following lysis buffer treatment
Protocol: as §1

[7] = tested on: S. pneumoniae WM43; assay: Viable counts following lysis buffer treatment
Protocol: as §1

[8] = tested on: A. actinomycetecomitans; assay: Viable counts following lysis buffer treatment
Protocol: as §1

[9] = tested on: N. meningitidis; assay: Viable counts following lysis buffer treatment
Protocol: as §1

[10] = tested on: fastidious microorganisms; assay: Screening model, summary over the panel; details: summary of the colony counts of Table 6
Protocol: as §1

[11] = tested on: S. pneumoniae, S. pyogenes, S. agalactiae, S. mitis, P. mirabilis, K. pneumoniae and E. coli; assay: Follow up experiment: viability after 5-minute contact time; details: data not shown

For CCCCCCCCO[C@@H]1O[C@H](CO)[C@@H](O)[C@H](O)[C@H]1O [Detergent 1, n-octyl glucoside, reference compound], the “Gram Stain of Pellet: Bacteria (cocci)” value [1] was “No organisms seen”.
In the case of C[C@H](CCC(=O)NCCC[N+](C)(C)CCCS(=O)(=O)[O-])[C@H]1CC[C@H]2[C@@H]3[C@H](O)C[C@@H]4C[C@H](O)CC[C@]4(C)[C@H]3C[C@H](O)[C@]12C [Detergent 2, CHAPS, reference compound], the “Gram Stain of Pellet: Bacteria (cocci)” value [1] is reported as “Rare Gram negative”.
CCCCCCCCCCCCOCCOCCOCCOCCOCCOCCOCCOCCOCCO [Detergent 6, nonaethylene glycol monododecyl ether, reference compound] was tested, and the “Viability of Pellet” value [1] was 4+, the “effect on Gram reaction/reactivity of the S. pneumoniae isolate (in words)” value [1] was “relatively minor effect” and the “viability of the recovered S. pneumoniae cells (in words)” value [2] was “not as high”.
With Arlasolve 200 [Detergent 11] the “Gram Stain of Pellet: Bacteria (cocci)” value [1] was 3+ Gram positive.
For Brij ® 96V [Detergent 9], the “Gram Stain of Pellet: Bacteria (cocci)” value [1] was 3+ Gram positive.
Brij ® 97 [Detergent 10] was tested, and the “Viable Counts Following Lysis Buffer Treatment” value ([3]; 1 min at 37 C) was 14, the “Viable Counts Following Lysis Buffer Treatment” value ([3]; 5 min at 37 C) was 11 and the “Viable Counts Following Lysis Buffer Treatment” value ([4]; 1 min at 37 C) was 0. The “Viable Counts Following Lysis Buffer Treatment” value ([4]; 5 min at 37 C) was 0, the “Viable Counts Following Lysis Buffer Treatment” value ([5]; 1 min at 37 C) was 74 and the “Viable Counts Following Lysis Buffer Treatment” value ([5]; 5 min at 37 C) was 28. For the same compound, the “Viable Counts Following Lysis Buffer Treatment” value ([6]; 1 min at 37 C) was 124, the “Viable Counts Following Lysis Buffer Treatment” value ([6]; 5 min at 37 C) was 19 and the “Viable Counts Following Lysis Buffer Treatment” value ([7]; 1 min at 37 C) was 18. The “Viable Counts Following Lysis Buffer Treatment” value ([7]; 5 min at 37 C) was 7, the “Viable Counts Following Lysis Buffer Treatment” value ([8]; 1 min at 37 C) was 0 and the “Viable Counts Following Lysis Buffer Treatment” value ([8]; 5 min at 37 C) was 0. The “Viable Counts Following Lysis Buffer Treatment” value ([9]; 1 min at 37 C) was 0, the “Viable Counts Following Lysis Buffer Treatment” value ([9]; 5 min at 37 C) was 0 and the “toxicity over the panel (in words)” value [10] was “minimal toxicity”. The “Viability of Pellet” value [1] was 4+, the “Gram Stain of Pellet: Bacteria (cocci)” value [1] was 3+ Gram positive and the “viability (in words)” value [11] was “remained unaffected”.
In the case of Brij ® 98 [Detergent 12], the “Gram Stain of Pellet: Bacteria (cocci)” value [1] is reported as 3+ Gram positive.
Genapol ® C-100 [Detergent 7] was tested, and the “Viable Counts Following Lysis Buffer Treatment” value ([3]; 1 min at 37 C) was 17, the “Viable Counts Following Lysis Buffer Treatment” value ([3]; 5 min at 37 C) was 12 and the “Viable Counts Following Lysis Buffer Treatment” value ([4]; 1 min at 37 C) was 0. For the same compound, the “Viable Counts Following Lysis Buffer Treatment” value ([4]; 5 min at 37 C) was 0, the “Viable Counts Following Lysis Buffer Treatment” value ([5]; 1 min at 37 C) was 0 and the “Viable Counts Following Lysis Buffer Treatment” value ([5]; 5 min at 37 C) was 0. For the same compound, the “toxicity (in words)” value ([5]; compared with Brij® 97) was “slightly more toxic”, the “Viable Counts Following Lysis Buffer Treatment” value ([6]; 1 min at 37 C) was 0 and the “Viable Counts Following Lysis Buffer Treatment” value ([6]; 5 min at 37 C) was 0. The “toxicity (in words)” value ([6]; compared with Brij® 97) was “slightly more toxic”, the “Viable Counts Following Lysis Buffer Treatment” value ([7]; 1 min at 37 C) was 30 and the “Viable Counts Following Lysis Buffer Treatment” value ([7]; 5 min at 37 C) was 19. For the same compound, the “Viable Counts Following Lysis Buffer Treatment” value ([8]; 1 min at 37 C) was 0, the “Viable Counts Following Lysis Buffer Treatment” value ([8]; 5 min at 37 C) was 0 and the “Viable Counts Following Lysis Buffer Treatment” value ([9]; 1 min at 37 C) was 0. The “Viable Counts Following Lysis Buffer Treatment” value ([9]; 5 min at 37 C) was 0, the “Gram Stain of Pellet: Bacteria (cocci)” value [1] was 3+ Gram positive and the “viability (in words)” value [11] was “remained unaffected”.
With Genapol ® X-080 [Detergent 5] the “effect on Gram reaction/reactivity of the S. pneumoniae isolate (in words)” value [1] was “relatively minor effect”.
Genapol ® X-100 [Detergent 8] was tested, and the “Viability of Pellet” value [1] was 4+ and the “Gram Stain of Pellet: Bacteria (cocci)” value [1] was 3+ Gram positive.
With Triton ® X100-R [Detergent 3] the “Gram Stain of Pellet: Bacteria (cocci)” value [1] was 2+ Gram negative and the “viability of the recovered S. pneumoniae cells (in words)” value [2] was “not as high”.

From patent US10059975B2, “Methods for the isolation and identification of microorganisms” (bioMerieux, Inc., priority 2008, dated 2018)
